Data published in PubChem BioAssay (NCI).
Values joined by “and” are separate entries in the source; they are usually repeats but may differ in a detail not shown here. Identical values can stand only once.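 Assay format: 96-well plates, 48-hour exposure. GI50 = concentration required for 50% inhibition of growth. The concentration for full growth arrest is given as TGI.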

Columns and labels:
Assay in all cases: DTP human tumour cell line panel, 48 h
[1] = tested on: M14 melanoma
[2] = tested on: CCRF-CEM leukemia
[3] = tested on: SK-OV-3 ovarian
[4] = tested on: UO-31 renal
[5] = tested on: HT29 colon
[6] = tested on: T-47D breast
[7] = tested on: RPMI-8226 leukemia
[8] = tested on: LOX IMVI melanoma
[9] = tested on: SF-295 CNS
[10] = tested on: SK-MEL-28 melanoma
[11] = tested on: MALME-3M melanoma
[12] = tested on: MDA-N

SMILES | TGI [1] | GI50 [2] | TGI [2] | GI50 [3] | GI50 [4] | TGI [4] | GI50 [5] | GI50 [6] | TGI [6] | TGI [7] | GI50 [8] | GI50 [9] | TGI [3] | TGI [5] | TGI [8] | TGI [10] | TGI [9] | TGI [11] | TGI [12]
COc1cc([C@@H]2c3cc4c(c(O)c3C[C@H]3COC(=O)[C@@H]32)OCO4)cc(OC)c1OC | > 122 µM | 374 nM | 94.3 µM and > 241 µM and > 100 µM | 183 nM | 466 nM | 56.2 µM and 120 µM and > 100 µM | 1180 nM | 324 nM | > 231 µM | 27.4 µM and > 241 µM | 334 nM | 109 nM | – | – | – | – | – | – | –
COC(=O)[C@H](Cc1ccccc1)NC(=O)/C(=C/C(C)C)NC(=O)[C@H](CCSC)NC=O | > 100 µM | – | > 100 µM | – | – | > 100 µM | – | – | – | > 100 µM | – | – | > 100 µM | > 100 µM | > 100 µM | > 100 µM | > 100 µM | – | –
CCN1CCCC(C#N)(c2ccccc2)CC1 (stereo not drawn) | > 100 µM | – | – | – | – | > 100 µM | – | – | > 100 µM | > 100 µM | – | – | > 100 µM | > 100 µM | – | > 100 µM | > 100 µM | > 100 µM | > 100 µM
O=C(CC(CC(=O)Oc1c(Br)cc(Br)cc1C(=O)O)C(=O)Oc1c(Br)cc(Br)cc1C(=O)O)Oc1c(Br)cc(Br)cc1C(=O)O | > 100 µM | – | > 100 µM | – | – | > 100 µM | – | – | – | > 100 µM | – | – | > 100 µM | > 100 µM | > 100 µM | > 100 µM | > 100 µM | > 100 µM | –
O=C1C(C(O)(C(F)(F)Cl)C(F)(F)Cl)CCCC1C(O)(C(F)(F)Cl)C(F)(F)Cl (stereo not drawn) | > 10 µM | – | – | – | – | – | – | – | > 10 µM | – | – | – | > 10 µM | > 10 µM | > 10 µM | > 10 µM | > 10 µM | > 10 µM | > 10 µM
CCOc1ccc(N/C(=C(/C(Cl)=C(/Cl)Nc2ccccc2)[N+](=O)[O-])n2nnc3ccccc32)cc1 | 34 µM | – | – | – | – | 54.5 µM | – | – | > 100 µM | > 100 µM | – | – | > 100 µM | – | – | 54.5 µM | > 100 µM | 44.4 µM | 40.3 µM
Cc1[nH]c(=O)nc2c1C(NCCCN(C)C)c1cc(Cl)ccc1N2 (stereo not drawn) | 21.3 µM | – | 34.8 µM | – | – | 26.4 µM | – | – | – | 44 µM | – | – | 32.1 µM | 22.2 µM | 24.5 µM | 27.2 µM | 30.7 µM | 30.3 µM | –
Cc1cc([N+](=O)[O-])ccc1Sc1c2ccccc2nc2cc(Cl)ccc12 | > 100 µM | – | > 100 µM | – | – | > 100 µM | – | – | – | – | – | – | > 100 µM | – | 86.8 µM | > 100 µM | > 100 µM | > 100 µM | –
C=C1CCCC2[C@](C)(CC3=C(Cl)C(=O)C=C(OC)C3=O)C(C)CC[C@]12C (stereo partly drawn) | 10.3 µM | – | 11.6 µM | – | – | 5.77 µM | – | – | – | 14.6 µM | – | – | 46.5 µM | 7.37 µM | 4.23 µM | 17 µM | 14 µM | 16.3 µM | 13.7 µM
COC(=O)CCC(NC(=S)N/N=C/c1ccccn1)C(=O)OC (stereo not drawn) | > 100 µM | – | > 100 µM | – | – | > 100 µM | – | – | – | > 100 µM | – | – | > 100 µM | > 100 µM | > 100 µM | > 100 µM | > 100 µM | > 100 µM | –
O=C1c2cccnc2S(=O)(=O)N1c1ccc(Oc2ccccc2)cc1 | > 100 µM | – | > 100 µM | – | – | > 100 µM | – | – | > 100 µM | > 100 µM | – | – | > 100 µM | > 100 µM | – | > 100 µM | > 100 µM | > 100 µM | > 100 µM
c1cnn(C23C4C5C6C4C2C6C53)c1 (stereo not drawn) | – | – | > 100 µM | – | – | – | – | – | > 100 µM | > 100 µM | – | – | > 100 µM | > 100 µM | > 100 µM | > 100 µM | > 100 µM | – | > 100 µM
CC(=O)OC(CN1CCN(c2ccccn2)CC1)Cn1sc2nc(C)cc(C)c2c1=O (stereo not drawn) | 31.4 µM | – | > 100 µM | – | – | 30.2 µM | – | – | 76.8 µM | > 100 µM | – | – | 35.9 µM | 34.4 µM | 47.4 µM | 42.2 µM | > 100 µM | 32.6 µM | –
CC(=O)OC1CC2CCN3C(=O)c4cc5c(cc4[C@H](C1OC(C)=O)C23)OCO5 (stereo partly drawn) | > 100 µM | – | > 100 µM | – | – | > 100 µM | – | – | – | > 100 µM | – | – | > 100 µM | > 100 µM | > 100 µM | > 100 µM | > 100 µM | > 100 µM | –
CC(C)(C)OC(=O)N[C@H]1CC(O)c2ccccc2N(CC(=O)O)C1=O (stereo partly drawn) | > 100 µM | – | > 100 µM | – | – | > 100 µM | – | – | – | – | – | – | > 100 µM | > 100 µM | > 100 µM | > 100 µM | > 100 µM | > 100 µM | –
COc1cc2c(cc1C[C@H]1[C@@H]3C[C@H]4c5c(c6ccccc6n5C)C[C@@H]([C@@H]3CO[C@]1(C)OC(C)=O)N4C)c1c(n2C)C2C[C@H]3C(C(C)=O)=COC[C@H]3[C@H](C1)N2C | 6.24 µM | – | 5.84 µM | – | – | > 25 µM | – | – | 17.2 µM | 3.56 µM | – | – | > 25 µM | 4.86 µM | > 25 µM | > 25 µM | 10.4 µM | 6.42 µM | –
CCN(CC)Cc1cc(Nc2c3ccccc3nc3c2[nH]c2ccccc23)cc(CN(CC)CC)c1O | 1.33 µM | – | – | – | – | 4.62 µM | – | – | – | – | – | – | 17 µM | 5.1 µM | – | 5.3 µM | 2.88 µM | – | 2.07 µM
NC1=NC2=c3ccccc3=C(c3cnccn3)C2(c2cnccn2)c2ccccc21 (stereo not drawn) | > 100 µM | – | > 100 µM | – | – | > 100 µM | – | – | – | > 100 µM | – | – | > 100 µM | > 100 µM | > 100 µM | > 100 µM | > 100 µM | > 100 µM | –
Cc1ccc(S(=O)(=O)CN2C(=O)C(c3ccccc3)(c3ccccc3)C23OC(c2ccc(Cl)cc2)=CC3=O)cc1 (stereo not drawn) | > 10 µM | – | > 10 µM | – | – | > 10 µM | – | – | > 10 µM | – | – | – | > 10 µM | > 10 µM | > 10 µM | > 10 µM | > 10 µM | > 10 µM | > 10 µM
CCOc1ccc2nc3nc(=O)[nH]c(C)c3c(NCCCN(CC)CC)c2c1 | > 100 µM | – | > 100 µM | – | – | > 100 µM | – | – | > 100 µM | – | – | – | > 100 µM | > 100 µM | > 100 µM | > 100 µM | > 100 µM | > 100 µM | > 100 µM
